Laboratory results reported in patent US11357230B2, “Herbicidal amides” (FMC Corporation, priority 2017, dated 2022).

Assays:
Format in all cases: in vivo
corn (Zea mays) = test: Test A postemergence, corn; settings: approximately 10 d
Text: (§1) Seeds of plant species selected from barnyardgrass (Echinochloa crus-galli), kochia (Kochia scoparia), ragweed (common ragweed, Ambrosia elatior), ryegrass, Italian (Italian ryegrass, Lolium multiflorum), foxtail, green (green foxtail, Setaria viridis), and pigweed (Amaranthus retroflexus) were planted into a blend of loam soil and sand and treated preemergence with a directed soil spray using test chemicals formulated in a non-phytotoxic solvent mixture which included a surfactant. At the same time, plants selected from these weed species and also wheat (Triticum aestivum), corn (Zea mays), blackgrass (Alopecurus myosuroides), and galium (catchweed bedstraw, Galium aparine) were planted in pots containing the same blend of loam soil and sand and treated with postemergence applications of test chemicals formulated in the same manner. Plants ranged in height from 2 to 10 cm and were in the one- to two-leaf stage for the postemergence treatment. Treated plants and untreated controls were maintained in a greenhouse for approximately 10 d, after which time all treated plants were compared to untreated controls and visually evaluated for injury. Plant response ratings, summarized in Table A, are based on a 0 to 100 scale where 0 is no effect and 100 is complete control. A dash (-) response means no test result.

kochia (Kochia scoparia) [1] = test: Test A postemergence, kochia; settings: approximately 10 d
Text: as §1

[2] = test system: foxtail, green (green foxtail, Setaria viridis); test: Test A preemergence, green foxtail; settings: approximately 10 d
Text: as §1

kochia (Kochia scoparia) [3] = test: Test A preemergence, kochia; settings: approximately 10 d
Text: as §1

[4] = test system: galium (catchweed bedstraw, Galium aparine); test: Test A postemergence, galium; settings: approximately 10 d
Text: as §1

[5] = test system: ryegrass, Italian (Italian ryegrass, Lolium multiflorum); test: Test A preemergence, Italian ryegrass; settings: approximately 10 d
Text: as §1

[6] = test system: blackgrass (Alopecurus myosuroides); test: Test A postemergence, blackgrass; settings: approximately 10 d
Text: as §1

[7] = test system: barnyardgrass (Echinochloa crus-galli); test: Test A preemergence, barnyardgrass; settings: approximately 10 d
Text: as §1

[8] = test system: wheat (Triticum aestivum); test: Test A postemergence, wheat; settings: approximately 10 d
Text: as §1

[9] = test system: barnyardgrass (Echinochloa crus-galli); test: Test B flooded paddy test, barnyardgrass; settings: 250 g ai/ha, Flood (paddy water), 13 to 15 d
Experimental: (§2) Plant species in the flooded paddy test selected from rice (Oryza sativa), sedge, umbrella (small-flower umbrella sedge, Cyperus difformis), ducksalad (Heteranthera limosa), and barnyardgrass (Echinochloa crus-galli) were grown to the 2-leaf stage for testing. At time of treatment, test pots were flooded to 3 cm above the soil surface, treated by application of test compounds directly to the paddy water, and then maintained at that water depth for the duration of the test. Treated plants and controls were maintained in a greenhouse for 13 to 15 d, after which time all species were compared to controls and visually evaluated. Plant response ratings, summarized in Table B, are based on a scale of 0 to 100 where 0 is no effect and 100 is complete control. A dash (-) response means no test result.

rice (Oryza sativa) = test: Test B flooded paddy test, rice; settings: 250 g ai/ha, Flood (paddy water), 13 to 15 d
Experimental: as §2

[10] = test system: foxtail, green (green foxtail, Setaria viridis); test: Test A postemergence, green foxtail; settings: approximately 10 d
Text: as §1

[11] = test system: pigweed (Amaranthus retroflexus); test: Test A postemergence, pigweed; settings: approximately 10 d
Text: as §1

[12] = test system: ragweed (common ragweed, Ambrosia elatior); test: Test A preemergence, ragweed; settings: approximately 10 d
Text: as §1

[13] = test system: ragweed (common ragweed, Ambrosia elatior); test: Test A postemergence, ragweed; settings: approximately 10 d
Text: as §1

[14] = test system: barnyardgrass (Echinochloa crus-galli); test: Test A postemergence, barnyardgrass; settings: approximately 10 d
Text: as §1

[15] = test system: ducksalad (Heteranthera limosa); test: Test B flooded paddy test, ducksalad; settings: 250 g ai/ha, Flood (paddy water), 13 to 15 d
Experimental: as §2

[16] = test system: pigweed (Amaranthus retroflexus); test: Test A preemergence, pigweed; settings: approximately 10 d
Text: as §1

[17] = test system: sedge, umbrella (small-flower umbrella sedge, Cyperus difformis); test: Test B flooded paddy test, umbrella sedge; settings: 250 g ai/ha, Flood (paddy water), 13 to 15 d
Experimental: as §2

[18] = test system: ryegrass, Italian (Italian ryegrass, Lolium multiflorum); test: Test A postemergence, Italian ryegrass; settings: approximately 10 d
Text: as §1

SMILES | Plant response rating (0 to 100 scale, 0 is no effect, 100 is complete control) (corn (Zea mays); 31 g ai/ha) | Plant response rating (0 to 100 scale, 0 is no effect, 100 is complete control) (corn (Zea mays); 125 g ai/ha) | Plant response rating (0 to 100 scale, 0 is no effect, 100 is complete control) (kochia (Kochia scoparia) [1]; 31 g ai/ha) | Plant response rating (0 to 100 scale, 0 is no effect, 100 is complete control) (kochia (Kochia scoparia) [1]; 125 g ai/ha) | Plant response rating (0 to 100 scale, 0 is no effect, 100 is complete control) ([2]; 31 g ai/ha) | Plant response rating (0 to 100 scale, 0 is no effect, 100 is complete control) ([2]; 125 g ai/ha) | Plant response rating (0 to 100 scale, 0 is no effect, 100 is complete control) (kochia (Kochia scoparia) [3]; 31 g ai/ha) | Plant response rating (0 to 100 scale, 0 is no effect, 100 is complete control) (kochia (Kochia scoparia) [3]; 125 g ai/ha) | Plant response rating (0 to 100 scale, 0 is no effect, 100 is complete control) ([4]; 31 g ai/ha) | Plant response rating (0 to 100 scale, 0 is no effect, 100 is complete control) ([4]; 125 g ai/ha) | Plant response rating (0 to 100 scale, 0 is no effect, 100 is complete control) ([5]; 31 g ai/ha) | Plant response rating (0 to 100 scale, 0 is no effect, 100 is complete control) ([5]; 125 g ai/ha) | Plant response rating (0 to 100 scale, 0 is no effect, 100 is complete control) ([6]; 31 g ai/ha) | Plant response rating (0 to 100 scale, 0 is no effect, 100 is complete control) ([6]; 125 g ai/ha) | Plant response rating (0 to 100 scale, 0 is no effect, 100 is complete control) ([7]; 31 g ai/ha) | Plant response rating (0 to 100 scale, 0 is no effect, 100 is complete control) ([7]; 125 g ai/ha) | Plant response rating (0 to 100 scale, 0 is no effect, 100 is complete control) ([8]; 31 g ai/ha) | Plant response rating (0 to 100 scale, 0 is no effect, 100 is complete control) ([8]; 125 g ai/ha) | Plant response rating (scale of 0 to 100, 0 is no effect, 100 is complete control) [9] | Plant response rating (scale of 0 to 100, 0 is no effect, 100 is complete control) (rice (Oryza sativa)) | also measured
CN1C[C@H](c2ccc(C(F)(F)F)cc2)[C@@H](C(=O)Nc2cccc(F)c2F)C1=NNC(=O)C(C)(C)C [Compound 1, 2-[(3R,4S)-3-[[(2,3-difluorophenyl)amino]carbonyl]-1-methyl-4-[4-(trifluoromethyl)phenyl]-2-pyrrolidinylidene]hydrazide 2,2-dimethylpropanoic Acid] | 0 | 40 | 0 | 0 | 50 | 100 | 0 | 60 | 0 | 10 | 0 | 0 | 10 | 50 | 80 | 100 | 0 | 30 | 65 | 0 | Plant response rating (0 to 100 scale, 0 is no effect, 100 is complete control) ([10]; 31 g ai/ha): 40; Plant response rating (0 to 100 scale, 0 is no effect, 100 is complete control) ([10]; 125 g ai/ha): 80; Plant response rating (0 to 100 scale, 0 is no effect, 100 is complete control) ([11]; 31 g ai/ha): 0; Plant response rating (0 to 100 scale, 0 is no effect, 100 is complete control) ([11]; 125 g ai/ha): 0; Plant response rating (0 to 100 scale, 0 is no effect, 100 is complete control) ([12]; 31 g ai/ha): 0; Plant response rating (0 to 100 scale, 0 is no effect, 100 is complete control) ([12]; 125 g ai/ha): 100; Plant response rating (0 to 100 scale, 0 is no effect, 100 is complete control) ([13]; 31 g ai/ha): 0; Plant response rating (0 to 100 scale, 0 is no effect, 100 is complete control) ([13]; 125 g ai/ha): 0; Plant response rating (0 to 100 scale, 0 is no effect, 100 is complete control) ([14]; 31 g ai/ha): 40; Plant response rating (0 to 100 scale, 0 is no effect, 100 is complete control) ([14]; 125 g ai/ha): 80; Plant response rating (scale of 0 to 100, 0 is no effect, 100 is complete control) [15]: 30; Plant response rating (0 to 100 scale, 0 is no effect, 100 is complete control) ([16]; 31 g ai/ha): 50; Plant response rating (0 to 100 scale, 0 is no effect, 100 is complete control) ([16]; 125 g ai/ha): 90; Plant response rating (scale of 0 to 100, 0 is no effect, 100 is complete control) [17]: 0; Plant response rating (0 to 100 scale, 0 is no effect, 100 is complete control) ([18]; 31 g ai/ha): 20; Plant response rating (0 to 100 scale, 0 is no effect, 100 is complete control) ([18]; 125 g ai/ha): 60
CN1C[C@H](c2ccc(C(F)(F)F)cc2)[C@@H](C(=O)Nc2cccc(F)c2F)C1=NN [Compound 2, (3R,4S)—N-(2,3-difluorophenyl)-2-hydrazinylidene-1-methyl-4-[4-(trifluoromethyl)phenyl]-3-pyrrolidinecarboxamide] | 10 | 10 | 0 | 0 | 70 | 100 | 0 | 60 | 60 | 60 | 0 | 0 | 0 | 30 | 70 | 90 | 0 | 0 | 40 | 0 | Plant response rating (0 to 100 scale, 0 is no effect, 100 is complete control) ([10]; 31 g ai/ha): 30; Plant response rating (0 to 100 scale, 0 is no effect, 100 is complete control) ([10]; 125 g ai/ha): 70; Plant response rating (0 to 100 scale, 0 is no effect, 100 is complete control) ([11]; 31 g ai/ha): 0; Plant response rating (0 to 100 scale, 0 is no effect, 100 is complete control) ([11]; 125 g ai/ha): 40; Plant response rating (0 to 100 scale, 0 is no effect, 100 is complete control) ([12]; 31 g ai/ha): 0; Plant response rating (0 to 100 scale, 0 is no effect, 100 is complete control) ([12]; 125 g ai/ha): 40; Plant response rating (0 to 100 scale, 0 is no effect, 100 is complete control) ([13]; 31 g ai/ha): 0; Plant response rating (0 to 100 scale, 0 is no effect, 100 is complete control) ([13]; 125 g ai/ha): 0; Plant response rating (0 to 100 scale, 0 is no effect, 100 is complete control) ([14]; 31 g ai/ha): 20; Plant response rating (0 to 100 scale, 0 is no effect, 100 is complete control) ([14]; 125 g ai/ha): 60; Plant response rating (scale of 0 to 100, 0 is no effect, 100 is complete control) [15]: 0; Plant response rating (0 to 100 scale, 0 is no effect, 100 is complete control) ([16]; 31 g ai/ha): 0; Plant response rating (0 to 100 scale, 0 is no effect, 100 is complete control) ([16]; 125 g ai/ha): 80; Plant response rating (scale of 0 to 100, 0 is no effect, 100 is complete control) [17]: 50; Plant response rating (0 to 100 scale, 0 is no effect, 100 is complete control) ([18]; 31 g ai/ha): 0; Plant response rating (0 to 100 scale, 0 is no effect, 100 is complete control) ([18]; 125 g ai/ha): 30
